Test results: US9561228B2 (Celgene Avilomics Research, Inc., priority 2013, dated 2017)
Where two headings read alike, the source gives them in different places.

Key:
MEK1 activated ERK1 = target: T1, MEK1 activated ERK1 (Homo sapiens, UniProt P27361); assay: Omnia continuous-read kinase assay for potency against MEK1 activated ERK1; format: biochemical
T1 construct: purchased Millipore (Billerica, Mass.) 14-439-K
Procedure, shortened: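 Apparent IC50 came from initial reaction slopes (RFU vs time) plotted against log inhibitor with a variable-slope fit. Reactions were started with ERK1 (4 nM final) added to 50 μM ATP, roughly at its appKM, and 10 μM Sox-conjugated ST17 peptide in 20 mM Tris pH 7.5, 5 mM MgCl2. Fluorescence was monitored every 71 seconds.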

[1] = tested on: ERK1/2 phosphorylation of p90RSK in HT29 cells; assay: pRSK MSD Assay in HT29 cells; format: cell-based; conditions: Homo sapiens, HT-29, read-out: ERK1/ERK2 PRSK MSD HT29 EC50
Procedure, shortened: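 Serum-starved HT29 cells (0.1% FBS overnight) treated with test compound for 120 min at 37° C, then lysed with protease and phosphatase inhibitors. Phospho-p90RSK quantified by MSD sandwich immunoassay: RSK capture antibody, phospho-RSK detection antibody plus Sulfo-tagged antibody, electrochemiluminescence read.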

Erk1 = target: T2, Erk1 (Homo sapiens, UniProt P27361); assay: Protein Mass Modification Assay (intact protein MALDI, 60 min, 10-fold excess of compound); format: binding
T2 construct: purchased Millipore 14-439
Experimental: Protein Mass Modification Assay
Intact protein: Erk1 from Millipore (Cat. No. 14-439) was incubated for 60 min. at room temperature with a 10-fold excess of test compound to protein. 4 μL aliquots of the resulting mixture were diluted with 15 μL of 0.2% TFA prior to micro C4 ZipTipping directly onto the MALDI target using sinapinic acid as the desorption matrix (10 mg/ml in 0.1% TFA:Acetonitrile 50:50, v/v). The centroid mass of the target protein in the control sample was compared with the centroid mass of the target protein incubated with compound. A shift in the centroid mass of the treated protein compared to the untreated protein was divided by the molecular weight of the compound. This number corresponds to the percentage of modified protein after one hour incubation. Results from this assay are reported in Table A under the column “ERK1 Mass Mod (%).”

[2] = tested on: HT-29 cells (colorectal adenocarcinoma); assay: Inhibition of cancer cell proliferation, HT-29 (CellTiterGlo, 72 hours); format: cell-based; conditions: Homo sapiens
Procedure, shortened: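 HT-29 cells seeded at 3000/well, then treated with 3-fold serial dilutions from a 5,000 nM two-fold solution in serum-free RPMI1640, untreated wells as control, for 72 h at 37° C. CellTiterGlo luminescence converted to cell number via a standard curve; GI50 from percent inhibition versus untreated growth.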

[3] = tested on: ERK1/2 phosphorylation of p90RSK in A375 cells; assay: Detection of total and phosphor-RSK by MSD ELISA (A375); format: cell-based; conditions: Homo sapiens, A-375, read-out: ERK1/ERK2 PRSK A375 EC50
Experimental: Detection of Total and Phosphor-RSK by MSD ELISA (A375)
The protocol below describes an assay to measure the kinase activity of ERK1/2 to phosphorylate a substrate, p90RSK, in the presence or absence of a test compound.
A375 cells were grown in DMEM/10% FBS. Twenty four hours prior to the assay, 50,000 cells per well were plated in a 96 well flat bottom plate. Once cells attached to the plate, the medium was replaced with 100 ul of DMEM/0.1% FBS. Cells were cultured overnight in an incubator at 37° C.
Compound stock solutions of 10 mM in DMSO were prepared. 1000× dilutions were then prepared in DMSO. 1 uL of DMSO solution was then transferred to 1 ml DMEM/0.1% FBS in a deep well plate. Cell plate media was discarded, followed by addition of 100 uL of the compound-containing media. The preparation was incubated at 37° C. for 2 hrs.
Cell lysates were prepared as described below.
pRSK or Total RSK MSD Assay
MSD plates: Blank MSD plates were coated with 30 uL capture antibody (BD 610226) at a final concentration of 1 ug/mL in PBS. Both pRSK and total RSK MSD assays used the same capture antibody at the same concentration. Antibody stock concentration was 250 ug/mL. Once antibody solution was added to the MSD plate, the sides were tapped to be certain it was coated completely (visual inspection). It was then covered and placed at 4° C. overnight on a level surface.
Block MSD Plate: The coating antibody was removed and the plate was washed on a plate washer in MSD wash buffer. The last bit of wash solution was tapped out and 150 uL/well of 3% BSA in MSD wash buffer was added in. The preparation was placed on a shaker at room temperature for at least an hour.
Add samples: Media was removed from compound-treated cells and replaced with 55 uL/well MSD cell lysis buffer containing protease and phosphotase I & II inhibitors. The preparation was incubated on a shaker in a cold room for 30-45 min. The blocked MSD plate was washed a on plate washer, tapping out the last bit of wash solution, followed by addition of 50 uL (of the 55 ul) cell lysate in a well-well transfer. The preparation was covered and incubated on a shaker at room temp for 2 hours. The lysate was removed, washed on a plate washer 3 times, and the last bit of wash buffer was tapped out and replace with 25 uL/well detection antibody (described below).
For pRSK detection, a pRSK antibody stock of 21 ug/mL was prepared as follows: 1 ug/mL pRSK Ser380 antibody (Cell Signaling Technology, Cat. #9335)+1:750 anti-rabbit SulfoTag (Mesoscale Discovery, Cat. # R32AB-1) in 1% BSA in MSD wash buffer.
For total RSK detection, a total RSK antibody stock of 200 ug/mL was prepared as follows: 1 ug/mL total RSK (Santa Cruz sc-231G) antibody+1:750 anti-goat SulfoTag (from MSD, R32AG-1) in 1% BSA in MSD wash buffer.
The plate was incubated for 1 hr at room temperature on a shaker, followed by three washings. The last bit of wash buffer was tapped out. 150 uL/well 1×MSD Read buffer was added and the plate was then analyzed.

[4] = MEK1 activated ERK1, ATP at KM, read-out: ERK1 Omnia WT ATP KM IC50

T1 sequence (P27361 whole entry): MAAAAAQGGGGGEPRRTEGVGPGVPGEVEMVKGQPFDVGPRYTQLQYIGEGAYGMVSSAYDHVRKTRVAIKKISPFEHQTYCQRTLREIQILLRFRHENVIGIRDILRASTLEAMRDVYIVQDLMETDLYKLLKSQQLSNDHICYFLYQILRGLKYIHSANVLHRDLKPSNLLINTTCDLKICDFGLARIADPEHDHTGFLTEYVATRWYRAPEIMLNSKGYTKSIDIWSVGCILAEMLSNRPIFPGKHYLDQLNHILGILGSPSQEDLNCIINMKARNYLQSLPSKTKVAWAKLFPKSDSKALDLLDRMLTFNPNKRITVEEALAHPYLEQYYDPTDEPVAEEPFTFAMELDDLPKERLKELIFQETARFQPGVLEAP
T2 sequence (P27361 whole entry): as above

Compound | EC50 [1] | GI50 [2] | EC50 [3] | IC50 (MEK1 activated ERK1; ATP at KM, WT) | IC50 (MEK1 activated ERK1; [4]) | ERK1 Mass Mod (%) (Erk1)
C=CC(=O)Nc1ccccc1Nc1nc(N[C@H]2CCC[C@@H](CO)C2)ncc1Cl (racemic) [Compound I-121, Rac-cis-N-(2-((5-chloro-2-((3-(hydroxymethyl)cyclohexyl)amino)pyrimidin-4-yl)amino)phenyl)acrylamide] | < 100 nM | < 100 nM | – | – | < 100 nM | E (key: E: a mass modification of ≧70%; F: a mass modification of 31-69%; G: a mass modification ≦30%)
C=CC(=O)Nc1ccccc1Nc1nc(Nc2cc(C(=O)NOCCO)ccc2C)ncc1C(F)(F)F [Compound I-73, 3-((4-((2-Acrylamidophenyl)amino)-5-(trifluoromethyl)pyrimidin-2-yl)amino)-N-(2-hydroxyethoxy)-4-methylbenzamide] | 101 to 500 nM | 101 to 500 nM | – | – | 101 to 500 nM | E (a mass modification of ≧70%)
C/C=C/C(=O)Nc1cc(F)ccc1Nc1nc(N[C@@H]2CCC[C@H](C(N)=O)C2)ncc1Cl (racemic) [Compound I-113, Rac-cis-(E)-3-((4-((2-(but-2-enamido)-4-fluorophenyl)amino)-5-chloropyrimidin-2-yl)amino)cyclohexanecarboxamide] | > 1000 nM | – | – | – | > 1000 nM | F (key: E: a mass modification of ≧70%; F: a mass modification of 31-69%; G: a mass modification ≦30%)
C=CC(=O)N[C@@H]1CCCC[C@H]1Nc1nc(N[C@H]2CCCN(C(=O)CO)C2)ncc1C(F)(F)F [Compound I-32, N-((1R,2R)-2-((2-(((S)-1-(2-hydroxyacetyl)piperidin-3-yl)amino)-5-(trifluoromethyl)pyrimidin-4-yl)amino)cyclohexyl)acrylamide] | > 1000 nM | – | – | – | 101 to 500 nM | F (a mass modification of 31-69%)
C=CC(=O)Nc1ccccc1Nc1nc(Nc2cc(C(N)=O)ccc2C(F)(F)F)ncc1Cl [Compound I-220, 3-((4-((2-acrylamidophenyl)amino)-5-chloropyrimidin-2-yl)amino)-4-(trifluoromethyl)benzamide] | 501 to 999 nM | – | – | – | 101 to 500 nM | E (a mass modification of ≧70%)
C=CC(=O)Nc1ccccc1Nc1nc(Nc2ccc(N3CCN(C(C)=O)CC3)cc2OC)ncc1C(F)(F)F [Compound I-66, N-(2-((2-((4-(4-Acetylpiperazin-1-yl)-2-methoxyphenyl)amino)-5-(trifluoromethyl)pyrimidin-4-yl)amino)phenyl)acrylamide] | – | – | – | – | 501 to 999 nM | E (key: E: a mass modification of ≧70%; F: a mass modification of 31-69%; G: a mass modification ≦30%)
C=C(C)S(=O)(=O)Nc1cc(F)ccc1Nc1nc(Nc2cc(C(C)=O)ccc2C)ncc1Cl [Compound I-243, N-(2-((2-((5-acetyl-2-methylphenyl)amino)-5-chloropyrimidin-4-yl)amino)-5-fluorophenyl)prop-1-ene-2-sulfonamide] | > 1000 nM | – | – | – | > 1000 nM | G (a mass modification ≦30%)

Further lines, with some results ahead:

EC50 [1] | GI50 [2] | EC50 [3] | IC50 (MEK1 activated ERK1; ATP at KM, WT) | Compound | IC50 (MEK1 activated ERK1; [4]) | ERK1 Mass Mod (%) (Erk1)
> 1000 nM | – | – | – | CC(=O)N1CCC[C@H](Nc2ncc(C(F)(F)F)c(Nc3ccccc3NC(=O)CCCl)n2)C1 [Compound I-21, (S)—N-(2-((2-((1-Acetylpiperidin-3-yl)amino)-5-(trifluoromethyl)pyrimidin-4-yl)amino)phenyl)-3-chloropropanamide] | 101 to 500 nM | G (a mass modification ≦30%)
101 to 500 nM | – | – | – | C#CCOc1cc(C)c(Nc2ncc(Cl)c(Nc3ccccc3NC(=O)C=C)n2)cc1C(N)=O [Compound I-228, 5-((4-((2-acrylamidophenyl)amino)-5-chloropyrimidin-2-yl)amino)-4-methyl-2-(prop-2-yn-1-yloxy)benzamide] | 101 to 500 nM | E (a mass modification of ≧70%)
> 1000 nM | – | – | – | C=C(C)S(=O)(=O)Nc1cc(C)ccc1Nc1nc(Nc2cc(C(C)=O)ccc2C)ncc1C(F)(F)F [Compound I-98, N-(2-((2-((5-acetyl-2-methylphenyl)amino)-5-(trifluoromethyl)pyrimidin-4-yl)amino)-5-methylphenyl)prop-1-ene-2-sulfonamide] | 101 to 500 nM | G (a mass modification ≦30%)
501 to 999 nM | > 1000 nM | – | – | C=CC(=O)Nc1cc(OC)ccc1Nc1nc(Nc2ccc(N3CCC[C@@H]3C(N)=O)cc2C#N)ncc1Cl [Compound I-180, (R)-1-(4-((4-((2-acrylamido-4-methoxyphenyl)amino)-5-chloropyrimidin-2-yl)amino)-3-cyanophenyl)pyrrolidine-2-carboxamide] | 501 to 999 nM | E (a mass modification of ≧70%)
> 1000 nM | > 1000 nM | – | – | C=CC(=O)Nc1ccccc1Nc1nc(N[C@H]2CCCN(C(=O)CCCC(=O)NCCCOCCOCCOCCCNC(=O)CCCC[C@@H]3SC[C@@H]4NC(=O)N[C@@H]43)C2)ncc1Cl [Compound I-303, 5-((S)-3-((4-((2-acrylamidophenyl)amino)-5-chloropyrimidin-2-yl)amino)piperidin-1-yl)-5-oxo-N-(15-oxo-19-((3aS,4S,6aR)-2-oxohexahydro-1H-thieno[3,4-d]imidazol-4-yl)-4,7,10-trioxa-14-azanonadecyl)pentanamide] | – | G (a mass modification ≦30%)
501 to 999 nM | 501 to 999 nM | – | – | C=CC(=O)Nc1ccccc1Nc1nc(N[C@@H]2CCC[C@H](C(N)=O)C2)ncc1C(F)(F)F [Compound I-7, (1S,3R)-3-((4-((2-acrylamidophenyl)amino)-5-(trifluoromethyl)pyrimidin-2-yl)amino)cyclohexanecarboxamide] | – | E (a mass modification of ≧70%)
501 to 999 nM | – | > 1000 nM | > 1000 nM | C=CC(=O)Nc1cc(CN2CCN(C)CC2)ccc1Nc1nc(Nc2cc(OC)ncc2C)ncc1C(F)(F)F [Compound I-380, N-(2-((2-((2-methoxy-5-methylpyridin-4-yl)amino)-5-(trifluoromethyl)pyrimidin-4-yl)amino)-5-((4-methylpiperazin-1-yl)methyl)phenyl)acrylamide] | – | E (a mass modification of ≧70%)
